Positions count from the first letter of the chain named. Like-named read-outs stand apart in the source and are kept apart here.

As a reminder, the Emax is the size of the effect at its maximum, as opposed to the concentration needed. A word on the DC50: it is the midpoint of the concentration-degradation curve.

Test [1] addresses T1, RET(KD: 658-1114 G810R) (Homo sapiens, UniProt P07949, G810R).
T1 construct: 658-1114; expressed in transfected cells; host or cells: 293T.165 (293T cells, generated in-house)
T1 sequence (P07949 658-1114 G810R): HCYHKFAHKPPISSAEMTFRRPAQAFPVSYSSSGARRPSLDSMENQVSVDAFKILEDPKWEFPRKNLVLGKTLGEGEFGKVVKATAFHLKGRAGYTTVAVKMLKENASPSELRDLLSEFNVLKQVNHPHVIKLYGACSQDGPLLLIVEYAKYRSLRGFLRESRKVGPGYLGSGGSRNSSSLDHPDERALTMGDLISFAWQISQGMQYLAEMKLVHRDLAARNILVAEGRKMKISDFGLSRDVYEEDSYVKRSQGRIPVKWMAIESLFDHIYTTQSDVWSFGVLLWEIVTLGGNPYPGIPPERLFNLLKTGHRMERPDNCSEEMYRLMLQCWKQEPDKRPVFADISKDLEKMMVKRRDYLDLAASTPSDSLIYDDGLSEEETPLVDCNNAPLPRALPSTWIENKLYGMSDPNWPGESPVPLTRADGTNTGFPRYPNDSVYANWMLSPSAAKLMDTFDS
Briefly: HiBiT-Degradation, RET G810R degradation assay (Nano-Glo HiBiT Lytic), 293T.165 cells. The test is classed as cell-based. The settings on record: for Emax / DC50: 6.0 hours. A digest of the protocol:
(§1)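 6 h treatment, 293T.144 (WT) / 293T.165 (G810R) cells ectopically expressing HiBiT-fused RET KD; 11-pt half-log dilution, top 10 μM, n=2. Nano-Glo HiBiT lytic detection, luminescence. Output: DC50, Emax (% protein remaining).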

The target in test [2] is T2, RET (658-1114) (Homo sapiens, UniProt P07949).
T2 construct: 658-1114; expressed in transfected cells; host or cells: 293T.144 (293T cells, generated in-house)
T2 sequence (P07949 658-1114): T1 sequence (P07949 658-1114 G810R) with R153G
Briefly: HiBiT-Degradation, RET wild-type degradation assay (Nano-Glo HiBiT Lytic), 293T.144 cells. The test is classed as cell-based. The settings on record: for Emax / DC50: 6.0 hours. A digest of the protocol: as §1

Where [3] appears, read: % remaining protein, read-out: 293T.165 RET(KD: 658-1114 G810R) 6.0 hours (Emax).
The mark [4] stands for this setting: half-maximal degradation concentration, read-out: 293T.165 RET(KD: 658-1114 G810R) 6.0 hours (DC50).
Where [5] appears, read: % remaining protein, read-out: 293T.144 RET (658-1114) 6.0 hours (Emax).
Setting [6] is: half-maximal degradation concentration, read-out: 293T.144 RET (658-1114) 6.0 hours (DC50).
The mark [7] stands for this setting: HiBiT-Degradation, read-out: 293T.165 RET(KD: 658-1114 G810R) 6.0 hours (DC50).
[8] abbreviates: HiBiT-Degradation, read-out: 293T.144 RET (658-1114) 6.0 hours (DC50).
The mark [9] stands for this setting: HiBiT-Degradation, read-out: 293T.144 RET (658-1114) 6.0 hours (Emax).
Setting [10] is: RET G810R, read-out: HiBiT-Degradation 293T.165 RET(KD: 658-1114 G810R) 6.0 hours (DC50).
The mark [11] stands for this setting: RET G810R, read-out: HiBiT-Degradation 293T.165 RET(KD: 658-1114 G810R) 6.0 hours (Emax).
The mark [12] stands for this setting: RET wild-type, read-out: HiBiT-Degradation 293T.144 RET (658-1114) 6.0 hours (DC50).
Setting [13] is: RET wild-type, read-out: HiBiT-Degradation 293T.144 RET (658-1114) 6.0 hours (Emax).

As for `N#Cc1cnn2cc(-c3cnn([C@H]4CC[C@@H](N5CCN(c6c(F)cc(NC7CCC(=O)NC7=O)cc6F)CC5)CC4)c3)cc(-c3ccc(N4CCC5(CC4)OCc4cccnc45)nc3)c12` (single isomer, unassigned) [Compound 202, 4-(6-(5H-spiro[furo[3,4-b]pyridine-7,4′-piperidin]-1′-yl)pyridin-3-yl)-6-(1-((1s, 4s)-4-(4-(4-((2,6-dioxopiperidin-3-yl)amino)-2,6-difluorophenyl)piperazin-1-yl)cyclohexyl)-1H-pyrazol-4-yl)pyrazolo[1,5-a]pyridine-3-carbonitrile], the “293T.165 RET(KD: 658-1114 G810R) 6.0 hours (IP) [nM]” value in test [1] is on record as “++++ (<50 nM = ++++)”. The Emax in test [1] (setting [3]) and in test [2] (setting [5]) was less than 30% in each case. In addition, the half-maximal degradation concentration (DC50) in test [1] (setting [4]) and in test [2] (setting [6]) was less than 50 nM in each case. Further, the “293T.144 RET (658-1114) 6.0 hours (IP) [nM]” value in test [2] is given as “++++ (<50 nM = ++++)”.

As to `CCC1(NC(=O)C(C)C)CCN(c2ccc(-c3cc(-c4cnn(C5CCN(C(=O)CN6CCC(c7ccc(NC8CCC(=O)NC8=O)cc7F)CC6)CC5)c4)cn4ncc(C#N)c34)cn2)CC1` (stereo not shown) [Compound 55, N-[1-[5-[3-cyano-6-[1-[1-[2-[4-[4-[(2,6-dioxo-3-piperidyl)amino]-2-fluoro-phenyl]-1-piperidyl]acetyl]-4-piperidyl]pyrazol-4-yl]pyrazolo[1,5-a]pyridin-4-yl]-2-pyridyl]-4-ethyl-4-piperidyl]-2-methyl-propanamide], the values for the Emax in test [1] (setting [3]) and in test [2] (setting [9]) were less than 50% and less than 30%, respectively. Further, the DC50 in test [1] (setting [4]), in test [1] (setting [7]) and in test [2] (setting [8]) was less than 50 nM each time. Also, in test [1] (HiBiT-Degradation), the “293T.165 RET(KD: 658-1114 G810R) 6.0 hours (Emax)” value is “+++ (<50% = +++)”. Besides, the “293T.165 RET(KD: 658-1114 G810R) 6.0 hours (IP) [nM]” value in test [1] (HiBiT-Degradation) is on record as “++++ (< 50 nM = ++++)”. Moreover, in test [2] (HiBiT-Degradation), the “293T.144 RET (658-1114) 6.0 hours (IP) [nM]” value is given as “++++ (< 50 nM = ++++)”.

Regarding `N#Cc1cnn2cc(-c3cnn(C4CCN(C(=O)CN5CCC(c6ccc(NC7CCC(=O)NC7=O)cc6F)CC5)CC4)c3)nc(-c3ccc(N4CCC(Cc5ccccn5)CC4)nc3)c12` (stereo not shown) [Compound 72, 6-[1-[1-[2-[4-[4-[(2,6-dioxo-3-piperidyl)amino]-2-fluoro-phenyl]-1-piperidyl]acetyl]-4-piperidyl]pyrazol-4-yl]-4-[6-[4-(2-pyridylmethyl)-1-piperidyl]-3-pyridyl]pyrazolo[1,5-a]pyrazine-3-carbonitrile], the values for the Emax in test [1] (setting [3]), in test [1] (setting [11]) and in test [2] (setting [13]) were less than 50%, less than 50% and less than 30%, respectively. Also, the DC50 in test [1] (setting [4]), in test [1] (setting [10]) and in test [2] (setting [12]) was less than 50 nM in each case. Moreover, in test [1] (RET G810R), the “HiBiT-Degradation 293T.165 RET(KD: 658-1114 G810R) 6.0 hours (IP) [nM]” value is recorded as “++++ (< 50 nM = ++++)”. Besides, in test [2] (RET wild-type), the “HiBiT-Degradation 293T.144 RET (658-1114) 6.0 hours (IP) [nM]” value is “++++ (< 50 nM = ++++)”.

For `CC(C)NC(=O)C1(C)CCN(c2ccc(-c3cc(-c4ccc(N5CCN(C(=O)CN6CCC(c7ccc(NC8CCC(=O)NC8=O)cc7F)CC6)CC5)cc4)cn4ncc(C#N)c34)cc2)CC1` (stereo not shown) [Compound 50, 1-[4-[3-cyano-6-[4-[4-[2-[4-[4-[(2,6-dioxo-3-piperidyl)amino]-2-fluoro-phenyl]-1-piperidyl]acetyl]piperazin-1-yl]phenyl]pyrazolo[1,5-a]pyridin-4-yl]phenyl]-N-isopropyl-4-methyl-piperidine-4-carboxamide], the Emax in test [1] (setting [3]) and in test [2] (setting [9]) was less than 30% in each case. The DC50 is less than 100 nM in test [1] (setting [4]), less than 100 nM in test [1] (setting [7]) and less than 50 nM in test [2] (setting [8]). In test [1] (HiBiT-Degradation), the “293T.165 RET(KD: 658-1114 G810R) 6.0 hours (Emax)” value was “++++ (< 30% = ++++)”. Besides, the “293T.165 RET(KD: 658-1114 G810R) 6.0 hours (IP) [nM]” value in test [1] (HiBiT-Degradation) is listed as “++++ (< 50 nM = ++++)”. In addition, the “293T.144 RET (658-1114) 6.0 hours (IP) [nM]” value in test [2] (HiBiT-Degradation) is on record as “++++ (< 50 nM = ++++)”.

Regarding `CCC1(C(=O)NC(C)C)CCN(c2ccc(-c3nc(-c4cnn(C5CCN(C(=O)CC6(OC)CCN(c7ccc(NC8CCC(=O)NC8=O)cc7F)CC6)CC5)c4)cn4ncc(C#N)c34)cn2)CC1` (stereo not shown) [Compound 92, 1-[5-[3-cyano-6-[1-[1-[2-[1-[4-[(2,6-dioxo-3-piperidyl)amino]-2-fluoro-phenyl]-4-methoxy-4-piperidyl]acetyl]-4-piperidyl]pyrazol-4-yl]pyrazolo[1,5-a]pyrazin-4-yl]-2-pyridyl]-4-ethyl-N-isopropyl-piperidine-4-carboxamide], the “293T.165 RET(KD: 658-1114 G810R) 6.0 hours (IP) [nM]” value in test [1] is “++++ (<50 nM = ++++)”. The Emax in test [1] (setting [3]) and in test [2] (setting [5]) was less than 30% in each case. The values for the DC50 in test [1] (setting [4]) and in test [2] (setting [6]) were less than 100 nM and less than 50 nM, respectively. Also, the “293T.144 RET (658-1114) 6.0 hours (IP) [nM]” value in test [2] is “++++ (<50 nM = ++++)”.

Turning to `CCC1(C(=O)NC(C)C)CCN(c2ccc(-c3nc(-c4cnn(C5CCN(C(=O)CN6CCC(c7ccc(NC8CCC(=O)NC8=O)cc7F)CC6)CC5)c4)cn4ncc(C#N)c34)cn2)CC1` (stereo not shown) [Compound 53, 1-[5-[3-cyano-6-[1-[1-[2-[4-[4-[(2,6-dioxo-3-piperidyl)amino]-2-fluoro-phenyl]-1-piperidyl]acetyl]-4-piperidyl]pyrazol-4-yl]pyrazolo[1,5-a]pyrazin-4-yl]-2-pyridyl]-4-ethyl-N-isopropyl-piperidine-4-carboxamide], the maximum response (Emax) in test [1] (setting [3]) is less than 50%; in test [2] (setting [9]) it was less than 30%. Besides, the DC50 in test [1] (setting [4]), in test [1] (setting [7]) and in test [2] (setting [8]) was less than 50 nM throughout. Moreover, the “293T.165 RET(KD: 658-1114 G810R) 6.0 hours (Emax)” value in test [1] (HiBiT-Degradation) is given as “+++ (<50% = +++)”. For the same compound, the “293T.165 RET(KD: 658-1114 G810R) 6.0 hours (IP) [nM]” value in test [1] (HiBiT-Degradation) was “++++ (< 50 nM = ++++)”. For the same compound, in test [2] (HiBiT-Degradation), the “293T.144 RET (658-1114) 6.0 hours (IP) [nM]” value is recorded as “++++ (< 50 nM = ++++)”.

Consider `CCC1(C(=O)NC(C)C)CCN(c2ccc(-c3nc(-c4cnn(C5CCC6(CC5)CN(C(=O)CC5(O)CCN(c7ccc(NC8CCC(=O)NC8=O)cc7F)CC5)C6)c4)cn4ncc(C#N)c34)cn2)CC1` (stereo not shown) [Compound 182, 1-(5-(3-Cyano-6-(1-(2-(2-(1-(4-((2,6-dioxopiperidin-3-yl)amino)-2-fluorophenyl)-4-hydroxypiperidin-4-yl)acetyl)-2-azaspiro[3.5]nonan-7-yl)-1H-pyrazol-4-yl)pyrazolo[1,5-a]pyrazin-4-yl)pyridin-2-yl)-4-ethyl-N-isopropylpiperidine-4-carboxamide], for which the “293T.165 RET(KD: 658-1114 G810R) 6.0 hours (IP) [nM]” value in test [1] is “++++ (<50 nM = ++++)”. For the same compound, the Emax in test [1] (setting [3]) is less than 50%; in test [2] (setting [5]), less than 30%. In addition, the DC50 in test [1] (setting [4]) and in test [2] (setting [6]) was less than 50 nM each time. Further, the “293T.144 RET (658-1114) 6.0 hours (IP) [nM]” value in test [2] was “++++ (<50 nM = ++++)”.

Regarding `N#Cc1cnn2cc(-c3cnn(C4CCN(C(=O)NC5CCN(c6ccc(NC7CCC(=O)NC7=O)cc6F)CC5)CC4)c3)cc(-c3ccc(N4CCN(Cc5ccccn5)CC4)nc3)c12` (stereo not shown) [Compound 77, 4-[4-[3-cyano-4-[6-[4-(2-pyridylmethyl)piperazin-1-yl]-3-pyridyl]pyrazolo[1,5-a]pyridin-6-yl]pyrazol-1-yl]-N-[1-[4-[(2,6-dioxo-3-piperidyl)amino]-2-fluoro-phenyl]-4-piperidyl]piperidine-1-carboxamide], the Emax is less than 50% in test [1] (setting [3]), less than 50% in test [1] (setting [11]) and less than 30% in test [2] (setting [13]). The figures for the half-maximal degradation concentration (DC50) in test [1] (setting [4]), in test [1] (setting [10]) and in test [2] (setting [12]) were less than 100 nM, less than 100 nM and less than 50 nM, respectively. The “HiBiT-Degradation 293T.165 RET(KD: 658-1114 G810R) 6.0 hours (IP) [nM]” value in test [1] (RET G810R) is recorded as “++++ (< 50 nM = ++++)”. Besides, the “HiBiT-Degradation 293T.144 RET (658-1114) 6.0 hours (IP) [nM]” value in test [2] (RET wild-type) is reported as “++++ (< 50 nM = ++++)”.
